Test results: patent publication US11957671B2, “Benzodioxane modulators of leukotriene A4 hydrolase (LTA4H) for prevention and treatment of aging-associated diseases” (Alkahest, Inc., priority 2021, dated 2024)

How the values were obtained:
[1] = Pharmacokinetic Measurement of Compound 1 (LC-MS/MS); assay type: in vivo, mouse; conditions: C57BL/6 mice
Text: The mice are subjected to cardiac puncture and blood samples were collected using syringes pre-filled with K2EDTA or heparin. […] Hemi-brain tissue was homogenized with 3× volumes of ice-cold water, then further diluted 2× with blank mouse plasma prior to analysis. […]

[2] = test system: LTA4H hydrolysis activity in human whole blood; assay: Ex Vivo LTB4 Assay, human blood; assay type: cell-based; conditions: human whole blood incubated with compound
Protocol: (§1) Whole blood was incubated with Compound 1 or vehicle and then a calcium ionophore (Calcimycin, A23187), or 10% DMSO. LTB4 levels in plasma were measured using ELISA.
(§2) FIGS. 36-37 report the results of ex vivo target engagement assays with Compound 1 in human and mouse plasma. Whole blood from human or mouse was incubated with vehicle or Compound 1, following by a calcium ionophore stimulation. Plasma was generated and LTB4 levels were measured using ELISA. LTB4 is the product of LTA4H hydrolysis so this assay reports on LTA4H enzymatic activity.

[3] = test system: LTA4H hydrolysis activity in mouse whole blood; assay: Ex Vivo LTB4 Assay, mouse blood; assay type: cell-based; conditions: mouse whole blood incubated with compound
Protocol: as §1, §2

aged C57BL6 mice [4] = assay: Nesting; assay type: in vivo, mouse; conditions: 10 days of dosing
Protocol: All nesting material was removed from home cage and mice were given 2 fresh nestlets 12-18 hours prior to scoring. The nest was carefully scored on a scale of 0-5 by an experimenter blinded to treatment group: 0 undisturbed, 1 disturbed, 2 flat, 3 cup, 4 incomplete dome, 5 complete dome.

aged C57BL6 mice [5] = assay: Inverted Wire Hang; assay type: in vivo, mouse; conditions: 12 days of dosing
Protocol: Mice were brought into the experimental room for at least 20 minutes of acclimation to the experimental room conditions (bright lighting) prior to testing. Each mouse was placed in the center of the grid. Then swiftly in one continuous motion the grid was inverted 180 degrees to suspend the mouse upside down with their nose being the last part of the mouse to be suspended. The timer was started once the mouse was completely suspended and time to fall was recorded. Mice were tested 3 times with no rest period between each test with a maximum suspension time of 120 seconds. The maximum and average time to fall were scored for each animal.

[6] = test system: aged wild type (WT; C57BL/6) mice; assay: qPCR of hippocampal gene expression; assay type: in vivo, mouse
Text: Brains were collected following saline perfusion and separated by mid-sagittal slice with one-half dissected into hippocampus and cortex and then snap frozen on dry ice. RNA was isolated from brain tissue using the RNAeasy Qiagen Kit according to the manufacturer's instruction, briefly, tissue was homogenized using an Omni Bead Ruptor in RLT buffer, RNA was bound to RNA isolation column, washed and eluted. Contaminating DNA was removed by DNAse digestion and cDNA was generated using the Life Technologies SuperScript III Kit. A master mix for qPCR was made using the appropriate forward and reverse primers, and SYBR green reagent or TaqMan reagent. The reaction was run on a Life Technologies QuantStudio Real-Time PCR System and analyzed using the std ddCT protocol on the QuantStudio6 software.
Three independent cohorts of aged wild type (WT; C57BL/6) mice between twenty to twenty-two months of age (20-22 mo) were homogenized into two (2) groups by body weight, total distance travelled in the open field test, and average velocity in the open field test. Group 1 was administered vehicle control PO daily. Group 2 was administered 10 mg/kg of the LTA4H inhibitor Compound 1 PO daily. Both groups were dosed for either 10 days or 4 weeks daily. Behavioral assays were run during the last week of dosing and animals were sacrificed at the end of the study for histological and molecular assays.

[7] = test system: Transgenic Notch3R169C mice; assay: CADASIL Mouse Model, Example 10; assay type: in vivo; conditions: 1 mg/kg PO bid for four months
Protocol: Transgenic Notch3^R169C mice are obtained along with transgenic Notch3^WT and/or wild type mice as described previously (Ghosh M, et al., Ann Neurol., 78(6):887-900 (2015); Rajani R M, et al., Acta Neuropathologica Comm., 7(187) (2019); and Joutel A, et al., J. Clin. Invest., 120(2):433-45 (2010), herein incorporated by reference in their entirety). Twenty Notch3R169c mice and 10 littermate control 5-month-old wild type mice are dosed with Vehicle or Compound 1 at 1 mg/kg PO bid for four months. Mice are anesthetized and blood and tissues are collected for further analysis.
Transgenic Notch3^R169C mice treated with Vehicle or Compound as described previously in section A (Experimental Procedures supra) have blood collected via cardiac puncture in syringes pre-filled with Heparin. Brains are collected following saline and Heparin infusion and separated by mid-sagittal slice. One half of the brain is drop fixed in 4% PFA and 24 hours later, the brain is changed into a solution of 15% sucrose. A secondary change to 30% sucrose is performed 48 hours after initial fixation in PFA.
Brains are then sectioned to 50 micrometers in thickness using a vibratome and placed on a slide for immunostaining and stained with PDGFRβ and LECTIN antibodies as described previously (Ghosh supra) to show pericyte coverage. The number of PDGFRβ positive pericytes per square millimeter of selected field area in the cortex is analyzed by randomly selecting four fields in nonadjacent sections at approximately 100 μm intervals.
Albumin and fibrinogen presence is measured as a positive signal in the brain parenchyma. The signals are quantified as described previously (Ghosh supra). Transgenic mice treated with Vehicle has increased albumin and fibrinogen leakiness into the brain parenchyma compared to Vehicle treated wild-type controls.
GFAP and AQP4 markers for astrocytes are measured to determine the presence of astrocyte end-feet. Transgenic mice treated with Vehicle is reduced GFAP and AQP4 compared with Vehicle treated wild-type controls. […] AQP4 and GFAP are markers for astrocyte, which make up an important part of the neurovascular unit and are lost in CADASIL mouse models and human patients.

[8] = single oral gavage dose 10, 1, 0.3, 0.1 mg/kg

O=C(O)C1CCN(Cc2ccc([C@H]3COc4ccccc4O3)cc2)CC1 [Example 1, 1-{4-[(2S)-2,3-dihydro-1,4-benzodioxin-2-yl]benzyl}piperidine-4-carboxylic acid]
brain penetration ([1]; single oral dose): brain penetrant, even at low doses
blood levels of Compound 1 [1, 8]: sustained and detectable in plasma and blood for up to 24 hours
brain levels of Compound 1 [1, 8]: sustained and detectable for up to 24 hours
plasma levels of Compound 1 [1, 8]: sustained and detectable in plasma and blood for up to 24 hours
LTB4 plasma levels after calcium ionophore stimulation [2]: reduces LTB4 plasma levels to unstimulated levels
LTB4 plasma levels after calcium ionophore stimulation [3]: reduces LTB4 plasma levels to unstimulated levels
nesting building score (aged C57BL6 mice [4]): no change in nesting building score
maximum hang time in the wire hang test (aged C57BL6 mice [5]): no change in maximum hang time
dcx hippocampal gene expression ([6]; 4 weeks of dosing): increased dcx hippocampal gene expression
h2d1 hippocampal gene expression ([6]; 10 days and 4 weeks of dosing): trends towards reduced h2d1 hippocampal gene expression
creb1 hippocampal gene expression ([6]; 10 days of dosing): increased creb1 hippocampal gene expression
egr1 hippocampal gene expression ([6]; 10 days of dosing): increased egr1 hippocampal gene expression
iba1 hippocampal gene expression ([6]; 10 days of dosing): trends towards reduced iba1 hippocampal gene expression
il1b hippocampal gene expression ([6]; 10 days of dosing): trends towards reduced il1b hippocampal gene expression
GFAP and AQP4 signal at vessels in the cortex [7]: increased positive signal at Lectin-positive vessels
additional blood-brain barrier markers in cortices [7]: significant levels of improvement
albumin and fibrinogen in brain parenchyma [7]: reduced albumin and fibrinogen
plasma levels of LTB4 [7]: reduction in plasma levels of LTB4
pericyte coverage and number in cortex ([7]; versus vehicle-treated transgenic mice): increase in pericyte coverage and number
